Measured values from patent US12195452B2, “N-(4-(oxazol-5-yl)phenyl) chromane-3-carboxamide derivatives and related compounds as stimulators of the production of retinal precursor cells for the treatment of neuroretinal diseases” (ENDOGENA THERAPEUTICS, INC., priority 2018, dated 2025).

These compounds were tested on retinal precursor cells (assay: Sphere passaging and high-throughput drug screening: proliferation of retinal precursor cells from the ciliary epithelium, cell number after one week). Settings: control experiment (absence of a compound) = 100; cells grown for one week.
Format: cell-based, mammalian
Method: Kynurenic Acid (0.2 mg/mL), trypsin (1.33 mg/mL), and hyaluronidase (0.67 mg/mL) were weighed out and dissolved in high magnesium/low calcium artificial cerebral spinal fluid (aCSF) at 37° C. Fibroblast growth factor 2 (FGF2; 10 ng/mL) and heparin (2 μg/mL) were added to 100 mL of serum-free media (SFM). Ovomucoid trypsin inhibitor (1 mg/mL) was dissolved in warm SFM and sterile filtered ([…]).
A dissecting microscope, cold light source, and sterile surgical instruments were set up inside of a sterile biological safety cabinet (BSC). Mammalian eyes were enucleated and placed in a petri dish containing cold, sterile aCSF. Under the dissecting microscope, hair, connective tissue, and the dorsal and ventral oblique muscles were cleared from the scleral/corneal border with two sets of forceps. Next, curved or angled micro-dissecting scissors were used to cleave any remaining extraocular muscle tissue, the optic nerve, and cut the eyeball into symmetrical halves; beginning and finishing the cut from the hole left by the optic nerve. Using two sets of forceps to grasp the cornea, the two eye halves were peeled apart. The lens, optic nerve, and vitreous were separated from the eye shells and the eye shells were transferred into a new petri dish (also containing cold, sterile aCSF). To isolate the ciliary epithelium (CE), eye shells were oriented with the cornea on the right and retinal pigmented epithelium (RPE) on the left. A pair of straight forceps were used to pin down the eye shell on the RPE side while a scalpel blade was inserted between the CE and the iris, using pressure to slice the iris/cornea side off from the rest of the shell. Next, the scalpel was run along the border between the CE and the RPE to obtain the CE isolated as a thin strip of tissue. The CE strips were then transferred to a 35 mm dish containing 2 mL of dispase solution (Sigma; T1005) and incubated for 10 minutes at 37° C. Next, the strips were transferred from dispase into a 35 mm dish containing 2 mL of sterile filtered kynurenic acid, trypsin and hyaluronidase solution and incubated at 37° C. for 10 minutes. After incubation, the dish was returned to the dissecting scope, and the CE strips were pinned down with straight, non-serrated forceps, while non-serrated curved forceps were used to scrape the CE off from the underlying sclera. The bare scleral strips were then discarded, such that only the CE cells remained in the enzyme solution. Using a fire-polished, cotton-plugged glass pipette, the cells and enzyme solution were transferred to a 15 mL tube and triturated approximately 45 times to break apart the tissue. The 15 mL tube/cell suspension was centrifuged for 5 minutes at 1500 rpm. The supernatant was gently aspirated from the resulting pellet using a fire-polished, cotton-plugged glass pipette and 2 mL of trypsin inhibitor solution was added to the pellet. Using a small borehole, fire-polished, cotton-plugged glass pipette, the sample was triturated approximately 45 times until it was a single-cell suspension. The 15 mL tube/cell suspension was centrifuged for 5 minutes at 1500 rpm. The supernatant was gently aspirated from the resulting pellet and 1-2 mL of SFM with FGF2 and heparin (plating media) was added. The cells and media were mixed to ensure a uniform cell suspension and a 10 uL sample was taken and cell density was determined. The cells were then seeded and cultured at 10c/μL in culture-treated plates or flasks. After one week, roughly 1 in 500 cells proliferated to form free-floating, clonal spheres greater than 80 μm in diameter.
Human-derived spheres were passaged using the kynurenic acid, trypsin, hyaluronidase enzyme solution with the addition of collagenase I (0.5 mg/mL), collagenase II (0.5 mg/mL) and elastase (0.1 mg/mL). Mouse-derived spheres were passaged using hyaluronidase (0.67 mg/mL), collagenase I (0.5 mg/mL), and collagenase II (0.5 mg/mL) dissolved in Accustase solution (Sigma; SCR005). […]

Compound	Cell proliferation within one week [%]
O=C(Nc1ccc(-c2cnco2)c(Cl)c1)C1COc2ccccc2C1 (racemic) [Compound 1, N-(3-chloro-4-(1,3-oxazol-5-yl)phenyl) chromane-3-carboxamide]	179
O=C(Nc1ccc(-c2cnco2)c(Cl)c1)C1CCOc2ccccc21 (racemic) [Compound 2, N-(3-chloro-4-(oxazol-5-yl)phenyl) chromane-4-carboxamide]	128
COc1ccc2c(c1)CC(C(=O)Nc1ccc(-c3cnco3)c(Cl)c1)CO2 (racemic) [Compound 3, N-(3-chloro-4-(oxazol-5-yl)phenyl)-6-methoxychromane-3-carboxamide]	138
O=C(Nc1ccc(-c2cnco2)c(F)c1)C1CCOc2ccccc21 (racemic) [Compound 4, N-(3-fluoro-4-(oxazol-5-yl)phenyl)chromane-4-carboxamide]	106
O=C(Nc1ccc(-c2cnco2)c(F)c1)C1COc2ccccc2C1 (racemic) [Compound 5, N-(3-fluoro-4-(oxazol-5-yl)phenyl)chromane-3-carboxamide]	133
O=C(Nc1ccc(-c2cnco2)c(Cl)c1)C1COc2ccccc2O1 (racemic) [Compound 6, N-(3-chloro-4-(oxazol-5-yl)phenyl)-2,3-dihydrobenzo[b][1,4]dioxine-2-carboxamide]	120
COc1ccc2c(c1)OC(C(=O)Nc1ccc(-c3cnco3)c(F)c1)CO2 (racemic) [Compound 7, N-(3-fluoro-4-(oxazol-5-yl)phenyl)-7-methoxy-2,3-dihydrobenzo[b][1,4]dioxine-2-carboxamide]	123
COc1ccc2c(c1)OC(C(=O)Nc1ccc(-c3cnco3)c(Cl)c1)CO2 (racemic) [Compound 8, N-(3-chloro-4-(oxazol-5-yl)phenyl)-7-methoxy-2,3-dihydrobenzo[b][1,4]dioxine-2-carboxamide]	117
O=C(Nc1ccc(-c2cnco2)c(F)c1)C1COc2ccccc2O1 (racemic) [Compound 9, N-(3-fluoro-4-(oxazol-5-yl)phenyl)-2,3-dihydrobenzo[b][1,4]dioxine-2-carboxamide]	118
COc1ccc2c(c1)CC(C(=O)Nc1ccc(-c3cnco3)c(F)c1)CO2 (racemic) [Compound 10, N-(3-fluoro-4-(oxazol-5-yl)phenyl)-6-methoxychromane-3-carboxamide]	121
COc1cc(NC(=O)C2CCOc3ccccc32)ccc1-c1cnco1 (racemic) [Compound 11, N-(3-methoxy-4-(oxazol-5-yl)phenyl) chromane-4-carboxamide]	140
COc1cc(NC(=O)C2COc3ccccc3C2)ccc1-c1cnco1 (racemic) [Compound 12, N-(3-methoxy-4-(oxazol-5-yl)phenyl) chromane-3-carboxamide]	230
COc1cc(NC(=O)C2COc3ccccc3O2)ccc1-c1cnco1 (racemic) [Compound 13, N-(3-methoxy-4-(oxazol-5-yl)phenyl)-2,3-dihydrobenzo[b][1,4]dioxine-2-carboxamide]	137
COc1ccc2c(c1)CC(C(=O)Nc1ccc(-c3cnco3)c(OC)c1)CO2 (racemic) [Compound 14, 6-methoxy-N-(3-methoxy-4-(oxazol-5-yl)phenyl)chromane-3-carboxamide]	196
COc1cc(NC(=O)C2CCOc3ccccc32)ccc1-c1ccncc1 (racemic) [Compound 15, N-(3-methoxy-4-(pyridin-4-yl)phenyl)chromane-4-carboxamide]	122
COc1ccc2c(c1)CC(C(=O)Nc1ccc(-c3ccncc3)c(OC)c1)CO2 (racemic) [Compound 16, 6-methoxy-N-(3-methoxy-4-(pyridin-4-yl)phenyl)chromane-3-carboxamide]	143

Compound	Cell proliferation within one week [%]
COc1cc(NC(=O)C2COc3ccccc3C2)ccc1-c1ccncc1 (racemic) [Compound 17, N-(3-methoxy-4-(pyridin-4-yl)phenyl)chromane-3-carboxamide]	114
COc1ccc2c(c1)OC(C(=O)Nc1ccc(-c3ccncc3)c(OC)c1)CO2 (racemic) [Compound 18, 7-methoxy-N-(3-methoxy-4-(pyridin-4-yl)phenyl)-2,3-dihydrobenzo[b][1,4]dioxine-2-carboxamide]	104
COc1cc(NC(=O)C2COc3ccccc3O2)ccc1-c1ccncc1 (racemic) [Compound 19, N-(3-methoxy-4-(pyridin-4-yl)phenyl)-2,3-dihydrobenzo[b][1,4]dioxine-2-carboxamide]	110
COc1ccc2c(c1)OC(C(=O)Nc1ccc(-c3cnco3)c(OC)c1)CO2 (racemic) [Compound 20, 7-methoxy-N-(3-methoxy-4-(oxazol-5-yl)phenyl)-2,3-dihydrobenzo[b][1,4]dioxine-2-carboxamide]	113
Cc1cc(NC(=O)C2COc3ccccc3C2)ccc1-c1cnco1 (racemic) [Compound 22, N-(3-methyl-4-(oxazol-5-yl)phenyl) chromane-3-carboxamide]	120
Cc1cc(-c2cnco2)ccc1NC(=O)C1COc2ccccc2C1 (racemic) [Compound 23, N-(2-methyl-4-(oxazol-5-yl)phenyl) chroman-3-carboxamide]	116
O=C(Nc1ccc(-c2cnco2)cc1OC(F)F)C1COc2ccccc2C1 (racemic) [Compound 24, N-(2-(difluoromethoxy)-4-(oxazol-5-yl)phenyl)chroman-3-carboxamide]	126
O=C(Nc1ccc(-n2cncn2)c(C(F)(F)F)c1)C1COc2ccccc2C1 (racemic) [Compound 28, N-(4-(1H-1,2,4-triazol-1-yl)-3-(trifluoromethyl)phenyl)chromane-3-carboxamide]	118
O=C(Nc1ccc(-c2nnco2)c(F)c1)C1COc2ccccc2C1 (racemic) [Compound 29, N-(3-fluoro-4-(1,3,4-oxadiazol-2-yl)phenyl)chromane-3-carboxamide]	108
Cc1ncc(-c2ccc(NC(=O)C3COc4ccccc4C3)cc2Cl)o1 (racemic) [Compound 30, N-(3-chloro-4-(2-methyloxazol-5-yl)phenyl)chromane-3-carboxamide]	119
O=C(Nc1ccc(-c2cnco2)c(Cl)c1)C1Cc2ccccc2O1 (racemic) [Compound 31, N-(3-chloro-4-(oxazol-5-yl)phenyl)-2,3-dihydrobenzofuran-2-carboxamide]	137
O=C(Nc1ccc(-c2cnco2)c(Cl)c1)C1CCOc2ccccc21 (racemic) [Compound 32, N-(3-chloro-4-(oxazol-5-yl)phenyl)chromane-4-carboxamide]	113
O=C(Nc1ccc(-c2cnco2)c(Cl)c1)C1CCc2ccccc21 (racemic) [Compound 33, N-(3-chloro-4-(oxazol-5-yl)phenyl)-2,3-dihydro-1H-indene-1-carboxamide]	116
O=C(CC1Cc2ccccc2O1)Nc1ccc(-c2cnco2)c(Cl)c1 (racemic) [Compound 34, N-(3-chloro-4-(oxazol-5-yl)phenyl)-2-(2,3-dihydrobenzofuran-2-yl)acetamide]	129
O=C(Nc1ccc(-c2cnco2)c(Cl)c1)C1COc2ccccc21 (racemic) [Compound 35, N-(3-chloro-4-(oxazol-5-yl)phenyl)-2,3-dihydrobenzofuran-3-carboxamide]	125

Same assay, conditions: within one week, over control

Compound	increase of cell proliferation [%]
O=C(Nc1ccc(-c2cnco2)c(Cl)c1)C1COc2ccccc2C1 (racemic) [Compound 1, N-(3-chloro-4-(1,3-oxazol-5-yl)phenyl) chromane-3-carboxamide]	79
COc1cc(NC(=O)C2CCOc3ccccc32)ccc1-c1cnco1 (racemic) [Compound 11, N-(3-methoxy-4-(oxazol-5-yl)phenyl) chromane-4-carboxamide]	40
COc1cc(NC(=O)C2COc3ccccc3C2)ccc1-c1cnco1 (racemic) [Compound 12, N-(3-methoxy-4-(oxazol-5-yl)phenyl) chromane-3-carboxamide]	130
COc1ccc2c(c1)CC(C(=O)Nc1ccc(-c3cnco3)c(OC)c1)CO2 (racemic) [Compound 14, 6-methoxy-N-(3-methoxy-4-(oxazol-5-yl)phenyl)chromane-3-carboxamide]	96
COc1ccc2c(c1)CC(C(=O)Nc1ccc(-c3ccncc3)c(OC)c1)CO2 (racemic) [Compound 16, 6-methoxy-N-(3-methoxy-4-(pyridin-4-yl)phenyl)chromane-3-carboxamide]	43
